In patent US9238620B1, “Pharmaceutical uses of sulfur-containing compound” (NATIONAL SUN YAT-SEN UNIVERSITY, priority 2014, dated 2016):

Columns and labels:
A549 cells [1] = experiment: Flow cytometry analysis of cell cycle and apoptosis (sub-G1); type: cell-based, Human; conditions: 20 and 40 μg/mL, treatment for 24 h
Description: A549 cells (2×10^5) were seeded into each well of a 12-well plate (TPP; Techno Plastic Products AG, Trasadingen, Switzerland) 24 h before being treated with various concentrations of dihydroaustrasulfone alcohol for 24 h. The cells were harvested with trypsin-EDTA, washed twice with 10 mL ice-cold PBS, fixed in 70% (v/v) ethanol, and kept at 4° C. The cells were then stained with propidium iodide (PI) [100 μg/mL PI, 0.2% (v/v) Nonidet P-40, and 1 mg/mL RNase A (DNase-free) in PBS lacking Ca^2+ and Mg^2+ at a 1:1:1 ratio by volume] and the DNA contents were analyzed with flow cytometry (Becton Dickinson, San Jose, Calif., USA). The intensity of PI fluorescence was linearly amplified, and both the area and width of the fluorescence pulse were measured. Ten thousand events were acquired, and the percentage of hypodiploid (apoptosis, sub-G1) events and the percentages of cells in the G0/G1, S and G2/M phases were determined using the DNA analysis software ModFitL T, version 2.0 (Verity Software, Topsham, Me., USA).

AKT = experiment: Western blotting in A549 cells, AKT phosphorylation; type: cell-based, Human; conditions: A549 cells, 20, 30, or 40 μg/mL, 24 h
Description: (§1) A549 cells were plated in 10-cm dishes at a density of 3×10^6 cells per dish and incubated with 20, 30 or 40 μg/mL dihydroaustrasulfone alcohol in F-12 containing 1% (v/v) FBS for 24 h. The cells were collected, lysed in a lysis solution, and then incubated at 25° C. for 10 min. Total proteins were separated with SDS-PAGE before being transferred to PVDF membranes. The membranes were blocked with 5% (v/v) nonfat dry milk in PBS-Tween 20 for one hour and changed to an appropriate dilution of specific primary antibodies in TBS-T buffer overnight at 4° C. The blots were then incubated with horseradish peroxidase-linked secondary antibody for 1 h and then developed with the […] (ECL) reagent and exposed to Hyperfilm (Amersham, Arlington Height, Ill., USA). The data were analyzed by Gel-Logic 200 Imaging Systems, Molecular Imaging Software.

MMP-2 = experiment: Gelatin zymography of A549 conditioned medium, MMP-2; type: cell-based, Human; conditions: A549 cells, 20, 30, or 40 μg/mL, 24 h
Description: (§2) Phytomedicine 2012, 19, 768-778). Briefly, the culture medium was electrophoresed (80 V for 120 min) in an 8% SDS-PAGE gel containing 0.1% gelatin. The gel was then washed at room temperature in a solution containing 2.5% (v/v) Triton X-100 with two changes and subsequently transferred to a reaction buffer for enzymatic reaction containing 1% NaN3; 10 mM CaCl2; and 40 mM Tris-HCl, pH 8.0; at 37° C. with shaking overnight (for 12-15 h). Finally, the MMP gel was stained for […] with 0.25% (w/v) Coomassie blue in 10% acetic acid (v/v) and 20% methanol (v/v) and destained in 10% acetic acid (v/v) and 20% methanol (v/v).

A549 cells [2] = experiment: Wound healing assay; type: cell-based, Human; conditions: 30 and 40 μg/mL, 18 h
Description: For cell motility determination, A549 cells (2×10^5 cells/mL) were seeded in a 12-well tissue culture plate. After one day, the center of the cell monolayers was scraped with a sterile micropipette tip to create a straight zone (gap) of constant width. Then, each well was washed with PBS, and A549 cells were exposed to various concentrations of dihydroaustrasulfone alcohol (20, 30 or 40 μg/mL). Wound closure was monitored and photographed at 0 h and 18 h with a Nikon inverted microscope. To quantify the migrated cells, pictures of the initial wounded monolayers were compared with the corresponding pictures of cells at the end of the incubation. Artificial lines fitting the cutting edges were drawn on pictures of the original wounds and overlaid on the pictures of cultures after incubation. Cells that had migrated across the white lines were counted in six random fields from each triplicate treatment.

A549 cells [3] = experiment: Trans-well cell migration assay; type: cell-based, Human; conditions: 30 or 40 μg/mL
Description: Tumor cell migration was assayed in trans-well chambers (Millipore) according to the method reported by Huang et al. (Lai, K. C.; Huang, A. C.; Hsu, S. C.; Kuo, C. L.; Yang, J. S.; Wu, S. H.; Chung, J. G. Benzyl isothiocyanate (BITC) inhibits migration and invasion of human colon cancer HT29 cells by inhibiting matrix metalloproteinase-2/-9 and urokinase plasminogen (uPA) through PKC and MAPK signaling pathway. J. Agric. Food Chem. 2010, 58, 2935-2942), with some modifications. Briefly, trans-well chambers with 6.5 mm polycarbonate filters of […] pore size were used. A549 cells (1×10^4 cells/mL) and 20, 30 or 40 μg/mL of dihydroaustrasulfone alcohol were suspended in F-12 (100 μL, serum free), placed in the upper trans-well chamber, and incubated for 24 h at 37° C. Then, the cells on the upper surface of the filter were completely wiped away with a cotton swab, and the lower surface of the filter was fixed in methanol, stained with 10% Giemsa solution, and counted under a microscope at a magnification of 200×. For each replicate, the tumor cells in 10 randomly selected fields were determined and the counts were averaged.

ERK1/2 = experiment: Western blotting in A549 cells, ERK1/2 phosphorylation; type: cell-based, Human; conditions: A549 cells, 20, 30, or 40 μg/mL, 24 h
Description: as §1

FAK = experiment: Western blotting in A549 cells, FAK phosphorylation; type: cell-based, Human; conditions: A549 cells, 20, 30, or 40 μg/mL, 24 h
Description: as §1

A549 cells [4] = experiment: MTT cell proliferation (cytotoxicity) assay; type: cell-based, Human
Description: The MTT assay was performed in the A549 cell lines to measure the cytotoxicity of dihydroaustrasulfone alcohol. All cell lines were seeded in 96-well plates with 2×10^4 cells/well in culture medium. Dihydroaustrasulfone alcohol was dissolved in PBS. The cells were treated with various concentrations of dihydroaustrasulfone alcohol as indicated in each figure. After 24 h, the number of viable cells was determined. Then, 5 mg/mL MTT was added to each well, and the plate was incubated at 37° C. for 3 h. The medium was removed, and 50 μL DMSO was added. The absorbance at 590 nm was measured for each well on an ELISA reader. The data are presented as the mean±SEM of three independent experiments.

[5] = Lewis lung carcinoma-bearing tumor model, body weight; type: in vivo, C57BL/6J mice; conditions: 8 or 16 mg/kg IP, days 8 or 14
Description: (§3) The animal experiments were approved by the Institutional Animal Care and Use Committee of China Medical University (approval ID: 102-194-C). All animal care followed the institutional animal ethical guidelines of China Medical University. C57BL/6J male mice (average 25-28 g; 6 weeks old) were obtained from the Laboratory Animal Center, College of Medicine, National Taiwan University (Taipei, Taiwan). The C57BL/6J mice were kept on a 12 h light/dark cycle at 25° C. C57BL/6J mice were subcutaneously implanted with LLC cells (7×10^5 cells in 100 μL). The treatment of dihydroaustrasulfone alcohol start while all the tumors volume were larger than 100 mm^3. Eighteen mice were randomly assigned to three treatment groups (6 animals per group). Group I (untreated group) was subcutaneously grafted with LLC cells and given vehicle solvent. Group II was grafted with LLC cells and then treated with dihydroaustrasulfone alcohol (8 mg/kg). Group III was grafted with LLC cells and then treated with dihydroaustrasulfone alcohol (16 mg/kg). The dihydroaustrasulfone alcohol was diluted in normal saline and administered by IP. Body weight and tumor volume were measured every week after cell injection. The tumor width (W) and length (L) were measured every week by calipers, and the tumor volume was calculated as L×W2×0.52. The mice were treated daily for 2 weeks and then sacrificed.

JNK1/2 = experiment: Western blotting in A549 cells, JNK1/2 phosphorylation; type: cell-based, Human; conditions: A549 cells, 20, 30, or 40 μg/mL, 24 h
Description: as §1

PI3K = experiment: Western blotting in A549 cells, PI3K protein level; type: cell-based, Human; conditions: A549 cells, 20, 30, or 40 μg/mL, 24 h
Description: as §1

MMP-9 = experiment: Gelatin zymography of A549 conditioned medium, MMP-9; type: cell-based, Human; conditions: A549 cells, 20, 30, or 40 μg/mL, 24 h
Description: as §2

[6] = test system: Lewis lung carcinoma (LLC); experiment: Lewis lung carcinoma-bearing tumor model, tumor size; type: in vivo, C57BL/6J mice; conditions: 8 or 16 mg/kg IP daily, 14-day treatment
Description: as §3

CC(=O)CCS(=O)(=O)CCO [dihydroaustrasulfone alcohol]
apoptosis in the sub-G1 phase (A549 cells [1]): no effect
phosphorylation of AKT (AKT): decrease in the phosphorylation
activity of MMP-2 (MMP-2): significantly inhibited
migration of A549 cells (wound healing) (A549 cells [2]): significantly decreased
migration of A549 cells (trans-well) (A549 cells [3]): significantly decreased
phosphorylation of ERK1/2 (ERK1/2): inhibited
phosphorylation of FAK (FAK): reduced phosphorylation of FAK
cell viability (A549 cells [4]; 60, 80, and 100 μg/mL, 24 h): significantly suppressed
IC50 (A549 cells [4]; Homo sapiens, A549, 24 h, read-out: IC50, viability of A549 cells): 273 µM
body weights compared with the LLC control group [5]: not significantly different
phosphorylation of JNK1/2 (JNK1/2): inhibited
protein levels of PI3K (PI3K): inhibited the protein levels of PI3K in a dose-dependent manner
activity of MMP-9 (MMP-9): significantly inhibited
tumor size compared with the LLC control group [6]: significantly reduced
